Source: patent US20230076977A1, “UTROPHIN UPREGULATION COMPOUNDS FOR DUCHENNE MUSCULAR DYSTROPHY THERAPY” (THE TRUSTEES OF THE UNIVERSITY OF PENNSYLVANIA, priority 2020, published 2023)
Read-outs that look alike come from different tables or passages of the source.

How the values were obtained:
[1] = tested on: 5′- and 3′-UTRs of human utrophin; test: Screening assay: C2C12 stable reporter line, CMV-driven luciferase flanked by utrophin 5′ and 3′ UTRs; type: cell-based; settings: for EC50: C2C12
Description: (§1) The construct for the HTS assay was generated by cloning the 5′- and 3′-UTRs of human utrophin into pGL4:50-hygro (Promega, Madison, Wis.) at the 5′ and 3′ of the luciferase coding sequence and has been described previously by Moorwood. […] For the counterscreening assay, the pGL4:50-hygro plasmid was used alone. Low passage C2C12 cells obtained from ATCC were transfected with either constructs, stably selected with 500 μg/mL hygromycin and subcloned using two rounds of serial dilutions to isolate single cell-derived colonies in a 96 wells plate format. […] The selected clones were cultured in presence of 100 μg/mL hygromycin B and were transferred to the HTS Facility at the University of Pennsylvania for implementation into a 384-wells format suitable for HTS.
(§2) The construct for generating the screening C2C12 cell line carrying the 5′ and 3′UTR of the human utrophin gene is described by Moorwood. […] Some compounds could increase light emission independently from the 5′ and 3′UTR regions, i.e., by activating the CMV promoter or increasing overall mRNA synthesis. Therefore, in order to distinguish such compounds, a counterscreening cell line stably expressing only the CMV-driven luciferase gene was generated (FIG. 1A). To determine optimal conditions for the implementation in a 384-wells high-throughput format, evaluated were DMSO tolerance, optimal cell density and incubation time (FIG. 5A-5C).
(§3) A first criterion for evaluating the performance of the selected hits was whether their activity was dose-dependent. After performing a dose-response analysis (5 nM to 10 μM) of each hit in the screening cell line, a clustering approach was applied (complete linkage with Euclidean distance measurement) to highlight similarities between compounds profiles. […] By modeling each dose-response trace with a 4-parameter logistic model applied to the Z— score values (FIG. 2B), the EC50 of each molecule was calculated.
(§4) Cells were allowed to attach overnight at 37° C., 5% CO2 in a humidified chamber. […] Compounds were added to a final concentration of 1 μM and 100 nM in 0.2% DMSO. Columns 1 and 23 were treated with 0.2% DMSO (negative control). Columns 2 and 24 were treated with 100 nM Panobinostat (positive control). Cells were incubated for 24 hours at 37° C., 5% CO2. […] Luminescence was measured on an EnVisionXcite Multilabel Plate Reader (PerkinElmer), using ultrasensitive luminescence measurement technology.

mdx mouse model of DMD = test: Preclinical TSA treatment in the mdx mouse model of DMD; type: in vivo
Description: Four-week-old mdx mice (C57BL/10ScSn-DMDmdx/J) were injected intraperitoneally on alternate days with Trichostatin A (Wako Chemicals USA-Inc, Richmond, Va.; dose 30 μg/kg), or an equal volume of sterile PBS for three months. All animal experiments were approved by the Institutional Animal Care and Use Committee at the University of Pennsylvania School of Medicine.
Functional in vivo and ex vivo analyses including rotarod, EDL strength, and sensitivity to damage induced by lengthening contractions (ECC), were performed as described by Krag, et al. Proc. Natl. Acad. Sci. U.S.A. 101, 13856-13860 (2004) and Bogdanovich, S. et al. Functional improvement of dystrophic muscle by myostatin blockade. Nature 420, 418-421 (2002), each of which is incorporated herein by reference in its entirety. Following the procedure, muscles were flash-frozen in liquid nitrogen-cooled isopentane and stored at −80° C.
(§5) Total RNA was extracted from TA muscle samples with RNAeasy kit (Qiagen, USA) and reverse transcribed with random hexamers. qPCR was performed using Taqman probes for Utrophin (Assay ID Mm01168846_ml) and β-actin. Muscle tissue samples were lysed with TNEC buffer (50 mM Tris-HCl, pH 8.0; 150 mMNaCl; 1% NP40; 2 mM EDTA) buffer containing complete protease inhibitor cocktail (Roche, Basel, Switzerland). C2C12 cells were treated for 24 h with 1 μM concentrations of compounds from a fresh batch (3 wells for each compound), and cell samples were lysed with RIPA buffer with protease inhibitor cocktail. The experiment was repeated three independent times. 50-75 μg of total proteins from muscle tissues, or 4 μg of cell protein extracts, were resolved on a 3-8% Tris-Acetate gradient gel (NuPage; Invitrogen), transferred to PDVF or nitrocellulose membranes and mouse monoclonal anti-utrophin antibody MANCHO3 clone 8A4 (developed by Glenn E. Morris and obtained from the Developmental Studies Hybridoma Bank, Iowa) or a custom-made anti-UtrophinA rabbit polyclonal antibody (muscle tissue samples) generated and described previously by Chakkalakal et al., Nucleic Acids Res. 36, 826-838 (2008), which is incorporated herein by reference in its entirety.
To test the ability of TSA to increase utrophin in vivo and improve the dystrophic phenotype, 4 week-old mdx mice were treated with i.p. injections of 30 μg/kg body weight TSA, on alternating days for a total of 3 months.

C2C12 cells = test: Cytotoxicity in C2C12 cells treated with increasing TSA concentrations; type: cell-based; settings: 24 hours
Description: (§6) TSA is a broad-spectrum HDAC inhibitor. […] To further validate in vitro the dose-dependent capacity of TSA to upregulate utrophin protein, C2C12 cells were treated for 24 hours with increasing concentrations of TSA (from 1 nM to 10 μM) (FIG. 3B). Consistent with the single-dose western blot validation experiments, utrophin protein levels were increased 4.3 times by 1 μM TSA. […] Some cytotoxicity was evident for TSA concentrations higher than 1 μM.

[2] = tested on: HDAC activity and proliferation of cancer cells; settings: depending on the particular cell line; cited from earlier work
[3] = tested on: CMV-driven luciferase gene; test: Counterscreening assay: C2C12 line stably expressing only the CMV-driven luciferase gene; type: cell-based; settings: Mus musculus, C2C12, read-out: counterscreening EC50
Description: as §1, §2, §3, §4

[4] = tested on: utrophin protein in C2C12 cells; test: Utrophin western blot in C2C12 cells (endogenous protein expression); type: cell-based; settings: 24 hours
Description: The 10 highest scoring hits were selected from this subset for performing in vitro validation. C2C12 cells were treated with 1 μM concentrations of the selected hits for 24 hours, followed by western blot evaluation of utrophin levels as an orthogonal assay for endogenous protein expression. […] Panobinostat, an FDA-approved non-selective HDAC inhibitor for cancer treatment, increased utrophin levels by 1.9-fold. […] AR-42 (S2244), another HDAC inhibitor with proven preclinical efficacy in contrasting cancer-induced cachexia, increased utrophin by 2.3-fold and had the second highest H2LPS. Consistent with the calculated HPS, the highest scoring hit, TSA (S1045), had also the highest magnitude of protein upregulation (3.9-fold) followed by PCI-24781 (S1090; 3.7-fold). Importantly, high H2LPS was generally correlated with confirmation in WB assays (FIG. 2E).
as §5, §6

[5] = ex vivo EDL, treated mdx, normalized by cross sectional area
[6] = treated mdx, TSA 30 μg/kg i.p. alternate days, 3 months

CC(/C=C/C(=O)NO)=C\[C@@H](C)C(=O)c1ccc(N(C)C)cc1 [Trichostatin A]
EC50 ([1]; 4-parameter logistic fit of Z-scores, 24 h, no unit in table (0.013 = 13 nM), read-out: EC50 screen): 13 nM
EC50 ([1]; read-out: EC50 score (1 to 4)): < 50 nM
EC50 ([1]; read-out: screening EC50): 13 nM
Upper-lower limits scoren ([1]; difference between upper and lower boundaries of the fitted dose-response screening curve): 34.53
Fold diff ([1]; fold difference between the EC50s of screening and counterscreening): 119.82
ECC force drop 1-5 (mdx mouse model of DMD; EDL, 5 consecutive eccentric contractions, treated mdx): 25.81 ± 4.46%
less force lost than control-treated muscles after the 5th ECC (mdx mouse model of DMD; EDL, series of 5 ECCs, FIG. 4G): 37%
Utrophin mRNA levels increased (mdx mouse model of DMD; TA muscle, qPCR, after TSA treatment): 4.9 fold
utrophin protein levels increased (mdx mouse model of DMD; TA muscle, western blot, after TSA treatment): 2 fold
myostatin or follistatin gene expression (mdx mouse model of DMD; TA muscles, FIG. 7): did not cause changes
lower number of centrally nucleated fibers (mdx mouse model of DMD; TSA-treated EDL muscles vs control): 30%
isometric twitch and tetanic strength of EDL muscles (mdx mouse model of DMD; before and after normalization by crossectional area): significantly higher
effect on body weight or the wet weight of skeletal muscles and organs (mdx mouse model of DMD; compared to control-treated mice): did not affect
EDL Tetanic force (mdx mouse model of DMD; ex vivo EDL, treated mdx): 351.9 ± 16.61 mN
EDL Twitch force (mdx mouse model of DMD; ex vivo EDL, treated mdx): 64.19 ± 4.22 mN
EDL Tetanic force (specific) (mdx mouse model of DMD; [5]): 166.0 ± 9.09 mN/mm^2
EDL Twitch force (specific) (mdx mouse model of DMD; [5]): 29.98 ± 1.84 mN/mm^2
serum creatine kinase or hydroxyproline content in TA and diaphragm muscles (mdx mouse model of DMD; mouse, in vivo): No significant changes
Diaphragm Hydroxyproline Diaphragm (mdx mouse model of DMD; treated mdx): 3.33 ± 0.22 µg/mg
Diaphragm Hydroxyproline TA (mdx mouse model of DMD; treated mdx): 0.90 ± 0.06 µg/mg
EDL CNF (centrally nucleated fibers) (mdx mouse model of DMD; treated mdx): 24.62 ± 2.30%
EDL CSA (cross sectional area) (mdx mouse model of DMD; treated mdx): 2.20 ± 0.13 mm^2
EDL L0 (muscle length) (mdx mouse model of DMD; treated mdx): 12.16 ± 0.20 mm
Serum CK (mdx mouse model of DMD; treated mdx): 7450 ± 2381 U/L
EDL muscle weight (mdx mouse model of DMD; [6]): 17.5 ± 0.4 mg
Gastrocnemius muscle weight (mdx mouse model of DMD; [6]): 213.0 ± 11.0 mg
Heart weight (mdx mouse model of DMD; [6]): 159.7 ± 5.2 mg
Kidneys weight (mdx mouse model of DMD; [6]): 532.3 ± 25.8 mg
Liver weight (mdx mouse model of DMD; [6]): 1179.0 ± 36.4 mg
Quadriceps muscle weight (mdx mouse model of DMD; [6]): 234.6 ± 8.7 mg
Soleus muscle weight (mdx mouse model of DMD; [6]): 12.8 ± 0.4 mg
Tibialis Anterior (TA) muscle weight (mdx mouse model of DMD; [6]): 66.1 ± 1.5 mg
Body weight (mdx mouse model of DMD; treated mdx, TSA 30 μg/kg i.p. alternate days, 3 months, mean ± SEM): 30.2 ± 0.5 g
rotarod test performance (mdx mouse model of DMD; treated vs control mdx): performed significantly better than control mdx
concentrations at which some cytotoxicity was evident (C2C12 cells): higher than 1 μM
IC50 in vitro [2]: nM to μM range
EC50 [3]: 1300 nM
Utrophin protein levels, fold increase ([4]; 1 μM, normalized to tubulin, vs 0.1% DMSO control): 3.9 fold
EC50 ([4]; Mus musculus, C2C12, 1 nM to 10 μM, read-out: EC50 for utrophin protein levels): 88 nM
utrophin protein levels increased ([4]; dose-response western blot, 1 μM TSA): 4.3 times
